Experimental data from the NIST ThermoML archive (doi:10.1021/je1009619).

Experiment: xn = mol fraction of the nth substance listed
Settings: Liquid, Vibrating tube method

CC1=CC[C@H]2C[C@@H]1C2(C)C [(S)-2-pinene] + C=C(C)[C@H]1CC=C(C)CC1
mass density [kg/m3]
Settings | x2 = 0 | x2 = 0.0976 | x2 = 0.1991 | x2 = 0.2983 | x2 = 0.3955 | x2 = 0.5036 | x2 = 0.5967 | x2 = 0.7024 | x2 = 0.8084 | x2 = 0.906
343.15 K, 30000 kPa | – | – | – | – | – | 835.4 | 834 | 832.1 | 830.4 | 828.8
343.15 K, 35000 kPa | 847.7 | 846 | 844.2 | 842.5 | 840.9 | 839.1 | 837.6 | 835.9 | 834.1 | 832.2
343.15 K, 40000 kPa | 851.4 | 849.6 | 847.9 | 846.2 | 844.5 | 842.7 | 841.2 | 839.5 | 837.3 | 835.5
358.15 K, 20000 kPa | 825 | 823.5 | 822.1 | 820.7 | 819.3 | 817.9 | 816.5 | 815.1 | 813.3 | 811.5
358.15 K, 25000 kPa | 829.2 | 827.7 | 826 | 824.6 | 823.1 | 821.6 | 820.2 | 818.7 | 816.9 | 815.3
358.15 K, 30000 kPa | 833.3 | 831.6 | 830 | 828.4 | 826.9 | 825.3 | 823.9 | 822.2 | 820.6 | 818.7
358.15 K, 35000 kPa | 837.4 | 835.7 | 834 | 832.2 | 830.7 | 829 | 827.5 | 825.8 | 824 | 822.4
358.15 K, 40000 kPa | 841.5 | 839.7 | 838 | 836.2 | 834.6 | 832.8 | 831.2 | 829.4 | 827.6 | 825.9
